Ten compounds from ChEMBL document CHEMBL1201862, “PubChem BioAssay data set” (2004) can be followed below.

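Method: 48-hour compound exposure of cells in 96-well plates, five concentrations, linear interpolation of endpoints. Here, GI50 denotes the concentration required for 50% inhibition of growth.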 Activity calls are given as the source filed them. Cut-off read from the data, not from the text of the source: active = GI50 up to about 1.1 µM and inactive = higher.

Test systems include 786-0; A498; ACHN; BT-549; CAKI-1; DU-145; HCC 2998; HCT-116; HOP-62; LOX IMVI; M14; MCF7; MDA-MB-231; OVCAR-3; SF-268; SK-MEL-28; SK-MEL-5; SK-OV-3; TK-10; U-251.
Holding throughout (test): NCI tumour cell line growth inhibition, 48 h

As for `COc1ccc2cc(CNCCCCCCNCc3ccc4cc(OC)ccc4c3)ccc2c1`, the GI50 in the assay on 786-0 is 0.902 µM (active); in the assay with A498 it was 1.58 µM (inactive); in the assay on ACHN, 1.57 µM (inactive); with BT-549 it was 1.72 µM (inactive); in the assay on CAKI-1, 1.38 µM (inactive); with DU-145, 1.58 µM (inactive). Further, the GI50 is 0.132 µM (active) with HCC 2998; 0.176 µM (active) with HCT-116; 1.64 µM (inactive) in the assay with HOP-62; 0.181 µM (active) with LOX IMVI; 0.169 µM (active) with M14; 0.319 µM (active) with MCF7. The GI50 is 0.465 µM (active) in the assay with MDA-MB-231; 0.575 µM (active) with OVCAR-3; 0.565 µM (active) in the assay on SF-268; 0.471 µM (active) in the assay on SK-MEL-28; 1.33 µM (inactive) with SK-MEL-5; 1.85 µM (inactive) with SK-OV-3. The figures for the GI50 in the assay with TK-10 and in the assay with U-251 were 1.8 µM (inactive) and 0.231 µM (active), respectively.
Regarding `CN(C)c1ccc(C2SCC(=O)N2c2nc3cc4sc(N5C(=O)CSC5c5ccc(N(C)C)cc5)nc4cc3s2)cc1` (stereo not given), the GI50 was > 100 µM (inactive) in the assay with 786-0; 27.9 µM (inactive) in the assay with A498; 28.1 µM (inactive) in the assay with ACHN; 22.9 µM (inactive) in the assay on BT-549; 8.49 µM (inactive) with CAKI-1; 13.2 µM (inactive) with DU-145. Also, the GI50 in the assay on HCC 2998 is > 100 µM (inactive); in the assay on HCT-116 it was 16 µM (inactive); with HOP-62 it was 56.6 µM (inactive); in the assay on LOX IMVI, 43.9 µM (inactive); in the assay on M14, 51.3 µM (inactive); in the assay with MCF7 it was 12 µM (inactive). The GI50 in the assay on MDA-MB-231 is > 51.8 µM (inactive); in the assay with OVCAR-3, 48.3 µM (inactive); with SF-268, 75.7 µM (inactive); in the assay with SK-MEL-28, > 72.8 µM (inactive); in the assay with SK-MEL-5, 32 µM (inactive); with SK-OV-3 it was 85.7 µM (inactive). The GI50 in the assay with TK-10 was > 100 µM (inactive); with U-251, 30.7 µM (inactive).
Take `O=C(O)c1cccc(C(=O)O)c1[S+]([O-])Cc1ccccc1` (stereo not given): the GI50 in the assay on 786-0, in the assay with A498, with ACHN, in the assay with BT-549, in the assay with CAKI-1 and with DU-145 was > 100 µM (inactive) in each case. Besides, the GI50 in the assay on HCC 2998, with HCT-116, in the assay on HOP-62, in the assay on LOX IMVI, in the assay with M14 and in the assay with MCF7 was > 100 µM (inactive) throughout. Besides, the GI50 in the assay on MDA-MB-231, with OVCAR-3, in the assay on SF-268, in the assay with SK-MEL-28, in the assay on SK-MEL-5 and in the assay on SK-OV-3 was > 100 µM (inactive) each time. Moreover, the GI50 in the assay on TK-10 and in the assay with U-251 was > 100 µM (inactive) in each case.
Regarding `COC(=O)/C=C1/OC(c2ccccc2)=CC1=O`, the GI50 in the assay on 786-0 is 14.5 µM (inactive); in the assay with A498 it was 13.7 µM (inactive); in the assay with ACHN it was 13.5 µM (inactive); with BT-549, 17.7 µM (inactive); in the assay on CAKI-1, 19.4 µM (inactive); with DU-145 it was 13.7 µM (inactive). In addition, the GI50 in the assay on HCC 2998 is 18.2 µM (inactive); in the assay with HCT-116, 15.9 µM (inactive); in the assay with HOP-62, 21.6 µM (inactive); in the assay on LOX IMVI it was 16.2 µM (inactive); in the assay on M14, 23.3 µM (inactive); with MCF7 it was 11.7 µM (inactive). In addition, the GI50 is 17 µM (inactive) in the assay with MDA-MB-231; 17.9 µM (inactive) with OVCAR-3; 19.1 µM (inactive) in the assay with SF-268; 19.9 µM (inactive) in the assay on SK-MEL-28; 19.9 µM (inactive) with SK-MEL-5; 17.5 µM (inactive) in the assay on SK-OV-3. The GI50 was 18.6 µM (inactive) in the assay on TK-10 and 16.4 µM (inactive) in the assay with U-251.
On to `C=C(C)OCOCCOC`, for which the GI50 with 786-0, with A498, in the assay with ACHN, with BT-549, with CAKI-1 and with DU-145 was > 100 µM (inactive) in each case. Also, the GI50 with HCC 2998, with HCT-116, with HOP-62, with LOX IMVI, with M14 and with MCF7 was > 100 µM (inactive) each time. In addition, the GI50 with MDA-MB-231, with OVCAR-3, with SF-268, with SK-MEL-28, with SK-MEL-5 and with SK-OV-3 was > 100 µM (inactive) each time. The GI50 in the assay on TK-10 and in the assay with U-251 was > 100 µM (inactive) each time.
As for `COc1ccc(-c2oc3cc(-c4cc5oc(-c6ccc(OC)cc6)c(-c6ccc(OC)cc6)c5cc4OC)c(OC)cc3c2-c2ccc(OC)cc2)cc1`, the GI50 with 786-0, in the assay on A498, in the assay on ACHN, with BT-549, with CAKI-1 and in the assay on DU-145 was > 100 µM (inactive) throughout. In addition, the GI50 in the assay on HCC 2998, in the assay with HCT-116, with HOP-62, with LOX IMVI, in the assay with M14 and in the assay with MCF7 was > 100 µM (inactive) each time. For the same compound, the GI50 with MDA-MB-231, in the assay on OVCAR-3, in the assay on SF-268, in the assay with SK-MEL-28, in the assay with SK-MEL-5 and in the assay with SK-OV-3 was > 100 µM (inactive) throughout. In addition, the GI50 with TK-10 and in the assay with U-251 was > 100 µM (inactive) each time.
As to `CC1(C)N=C(N)N=C(N)N1c1ccc(CCCCc2ccc(S(=O)(=O)F)cc2Cl)c(Cl)c1`, the GI50 in the assay with 786-0 was 0.186 µM (active); in the assay with A498, 37.2 µM (inactive); with ACHN, 2.22 µM (inactive); with BT-549 it was 5.26 µM (inactive); in the assay with CAKI-1 it was 9.55 µM (inactive); with DU-145, 2.85 µM (inactive). For the same compound, the GI50 in the assay with HCC 2998 was 5.04 µM (inactive); in the assay with HCT-116 it was 1.03 µM (active); with HOP-62, 9.35 µM (inactive); with LOX IMVI, 1.75 µM (inactive); with M14 it was 1.63 µM (inactive); in the assay with MCF7, 2.39 µM (inactive). Besides, the GI50 is 10.5 µM (inactive) in the assay with MDA-MB-231; 5.71 µM (inactive) in the assay on OVCAR-3; 0.984 µM (active) in the assay with SF-268; 4.93 µM (inactive) in the assay with SK-MEL-28; 1.05 µM (active) in the assay on SK-MEL-5; 106 µM (inactive) in the assay on SK-OV-3. The figures for the GI50 with TK-10 and with U-251 were 27.7 µM (inactive) and 1.02 µM (active), respectively.
Take `c1ccc2[nH]c3[nH]c4[nH]c5ccccc5[nH]c4[nH]c3[nH]c2c1`: the GI50 with 786-0, in the assay on A498, with ACHN, with BT-549, in the assay on CAKI-1 and in the assay on DU-145 was > 100 µM (inactive) throughout. The GI50 with HCC 2998, in the assay on HCT-116, in the assay with HOP-62, with LOX IMVI, with M14 and in the assay on MCF7 was > 100 µM (inactive) each time. For the same compound, the GI50 in the assay with MDA-MB-231, in the assay on OVCAR-3, in the assay on SF-268, in the assay with SK-MEL-28, with SK-MEL-5 and with SK-OV-3 was > 100 µM (inactive) throughout. Also, the GI50 in the assay on TK-10 and in the assay on U-251 was > 100 µM (inactive) throughout.
With `ON(CCc1ccccn1)Cc1ccccc1`, the GI50 in the assay with 786-0, in the assay on A498, with ACHN, in the assay with BT-549, in the assay with CAKI-1 and in the assay with DU-145 was > 100 µM (inactive) each time. Also, the GI50 in the assay with HCC 2998, in the assay on HCT-116, in the assay with HOP-62, in the assay on LOX IMVI, with M14 and in the assay on MCF7 was > 100 µM (inactive) each time. For the same compound, the GI50 in the assay on MDA-MB-231, in the assay on OVCAR-3, in the assay with SF-268, in the assay on SK-MEL-28, with SK-MEL-5 and in the assay with SK-OV-3 was > 100 µM (inactive) in each case. In addition, the GI50 in the assay on TK-10 and with U-251 was > 100 µM (inactive) each time.
Consider `O=C1C(=O)c2c(oc(=O)c3ccccc23)-c2ccccc21`, for which the GI50 with 786-0 was > 25 µM (inactive); with A498, > 25 µM (inactive); in the assay on ACHN, > 25 µM (inactive); in the assay on BT-549 it was 11.7 µM (inactive); in the assay on CAKI-1, > 25 µM (inactive); in the assay on DU-145, > 25 µM (inactive). For the same compound, the GI50 in the assay on HCC 2998 is 13.9 µM (inactive); in the assay with HCT-116, 11 µM (inactive); in the assay on HOP-62, > 25 µM (inactive); in the assay with LOX IMVI, 16.9 µM (inactive); in the assay with M14, > 25 µM (inactive); in the assay with MCF7, 10.9 µM (inactive). Besides, the GI50 with MDA-MB-231 is > 25 µM (inactive); in the assay with OVCAR-3, 7.05 µM (inactive); with SF-268, > 25 µM (inactive); in the assay with SK-MEL-28, > 25 µM (inactive); in the assay on SK-MEL-5, 12.6 µM (inactive); with SK-OV-3 it was > 25 µM (inactive). Moreover, the GI50 in the assay with TK-10 and in the assay with U-251 was > 25 µM (inactive) each time.
